Tests used:
[1] = Relative quantum yield of initiator decomposition in presence of monomer (IR at 1770 cm^-1); type: physicochemical; conditions: for relative quantum yield φrel of decomposition: benzene, initiator 2 × 10^-2 M
Experimental: (§1) Commercial styrene is washed three times with ice cold 2% NaOH solution followed by washing (four times) with distilled water. The styrene is dried over anhydrous CaCl2 and distilled under vacuum before use. The middle fraction of the distillate is used for polymerization. Solvents are purified by conventional means and distilled under N2 atmosphere.
(§2) The irradiations are carried out in degassed (three cycles of freeze-thaw under high vacuum) sealed 15-mm Pyrex tubes. The tubes are placed in a merry-go-round with a filtered UV source of 366 nm at the center and the yield of polymer is measured (below 10% conversion) gravimetrically. In all of the cases, tubes of the same size and same volume of solution are used. Number-average molecular weights of the purified polymers are determined by viscometry in a benzene solution. After the polymerization, an aliquot of 0.5 ml from each reaction tube is placed in 2-ml volumetric flasks. The solvent and excess monomer are evaporated under high vacuum for several hours. The remaining flask contents are dissolved in 0.5 ml of benzene or chloroform and the polymer is precipitated by adding 0.5 ml of n-hexane. The solution then is centrifuged and the IR of the centrifugate is measured to determine undecomposed perester. All of the above procedures are carried out as far as possible in the dark. The light intensity is measured by benzophenone-benzhydrol actinometry and observed to be Io =6.56×10^17 quanta/min on the average. The temperature of the tubes is maintained at 30° C.
The decomposition of the initiator employed is followed by IR at 1770 cm^-1 (caused by the carbonyl adjacent to the peroxy group) against an appropriate solvent blank. The initiators employed are .rho.-benzoylperoxybenzoic acid tert-butylester (Ia) and prior art benzophenone peroxide. In addition, the above procedure is repeated except that methyl methacrylate is employed in place of styrene. Table IX below illustrates the relative quantum yield for the decomposition of the initiators in the recited amounts of monomers, assuming that the quantum yield for the decomposition of the perester and peroxide in the absence of any monomer is one.

[2] = Photopolymerization of styrene, radical efficiency
Experimental: as §1, §2
The efficiency of the radicals to initiate polymerization, f, in the absence of any appreciable amount of chain transfer, can be defined as [formula] assuming bimolecular termination by the combination of two growing chains only [formula] whereas kd =rate of decomposition of perester in mol/liter sec. in the absence of monomer (a function of light intensity).

[3] = Stern-Volmer triplet quenching with naphthalene; type: physicochemical; conditions: CCl4
Excerpt: All the peresters give linear Stern-Volmer plots when naphthalene is used as triplet quencher.

[4] = Photodecomposition kinetics and quantum yields at 366 nm (benzophenone-benzhydrol actinometry); type: physicochemical
Experimental: Kinetic studies are carried out in degassed, sealed tubes by irradiating them with 366 nm light obtained from a Hanovia medium-pressure mercury lamp by combining the Corning Filters 0-52 and 7-60. The decompositions of the […] followed by the carbonyl IR absorption adjacent to the peroxide group (O=COO--) (1770 cm^-1). Benzophenone-benzhydrol redox actinometry are used throughout the study. In particular, a solution of […] (2 mL) in the appropriate solvent is placed in Pyrex tubes (12-mm diameter), degassed, and sealed under vacuum. Three cycles of freeze-thaw removes dissolved oxygen. The tubes are placed in a merry-go-round around a water-cooled light source, removed at different predetermined intervals, and kept frozen in liquid nitrogen in the dark until analysis is done. The estimation of […] done by quantitative IR, monitoring the carbonyl peak at 1770 cm^-1. […] Absorbance is measured with a 0.1 mm NaCl cell against solvent reference. With every run, two tubes containing actinometric solutions (benzophenone (0.1 M) and benzhydrol (0.05 M) in benzene are irradiated.

[5] = Thermal stability / thermal decomposition of peresters in the dark; type: physicochemical; conditions: 110° C., chlorobenzene, dark; initial concn Ia 5.01, Ib 5.15, Ic 5.19 × 10^-2 M
[6] = Relative quantum yield of initiator decomposition in presence of monomer (IR at 1770 cm^-1); type: physicochemical; conditions: benzene, initiator 2 × 10^-2 M
Experimental: Commercial methyl methacrylate monomer is washed three times with 2% NaOH solution to remove stabilizer. It is then washed with distilled water three times, dried with molecular sieves, and distilled under vacuum before use. Polymerization solutions are prepared in cylindrical tubes which are degassed and sealed. The amount of polymer formed is determined by precipitating the polymer with an excess of methanol, washing with methanol, and filtering through fine sintered crucibles (previously weighed) followed by drying in a vacuum oven. The irradiation condition is the same as that in the decomposition rate example hereinabove.
The irradiations are carried out in degassed (three cycles of freeze-thaw under high vacuum) sealed 15-mm Pyrex tubes. The tubes are placed in a merry-go-round with a filtered UV source of 366 nm at the center and the yield of polymer is measured (below 10% conversion) gravimetrically. In all of the cases, tubes of the same size and same volume of solution are used. Number-average molecular weights of the purified polymers are determined by viscometry in a benzene solution. […] The solution then is centrifuged and the IR of the centrifugate is measured to determine undecomposed perester. […] The light intensity is measured by benzophenone-benzhydrol actinometry and observed to be Io =6.56×10^17 quanta/min on the average. […]

[7] = benzene, [I] 0.31 × 10^-3 M, [M] 3.5 M
[8] = benzene, [I] 0.63 × 10^-3 M, [M] 3.5 M
[9] = benzene, [I] 1.15 × 10^-3 M, [M] 3.5 M
[10] = benzene, [I] 2.52 × 10^-3 M, [M] 3.5 M
[11] = benzene, [I] 5.03 × 10^-3 M, [M] 3.5 M
[12] = benzene, [I] 8.05 × 10^-3 M, [M] 3.5 M
[13] = benzene, [I] 10.0 × 10^-3 M, [M] 2.0 M
[14] = benzene, [I] 10.0 × 10^-3 M, [M] 3.5 M
[15] = benzene, [I] 10.0 × 10^-3 M, [M] 5.0 M
[16] = chloroform, [I] 1.11 × 10^-3 M, [M] 4.33 M
[17] = chloroform, [I] 2.28 × 10^-3 M, [M] 4.33 M
[18] = chloroform, [I] 5.14 × 10^-3 M, [M] 4.33 M
[19] = chloroform, [I] 9.92 × 10^-3 M, [M] 4.33 M

CC(C)(C)OOC(=O)c1ccc(C(=O)c2ccccc2)cc1 [Ia, t-Butyl-4-Benzoylperbenzoate]
effect of styrene on quantum yield of decomposition, in words [1]: Styrene drastically reduces the quantum yield of decomposition | relative quantum yield φrel of decomposition ([1]; styrene 1.09 M): 0.25 | relative quantum yield φrel of decomposition ([1]; styrene 2.19 M): 0.20 | relative quantum yield φrel of decomposition ([1]; styrene 3.28 M): 0.14 | relative quantum yield φrel of decomposition ([1]; styrene 4.37 M): 0.12 | relative quantum yield φrel of decomposition ([1]; styrene 8.73 M): very low | radical efficiency, in words [2]: approaches unity at low initiator concentrations | kd, rate of decomposition of perester in the absence of monomer ([2]; Table X footnote): 0.000512 mol/L/s | Average degree of polymerization [2, 7]: 320.4 | Radical efficiency f [2, 7]: 0.92 | Rp × 10^5 [2, 7]: 0.65 mole/liter sec | φrel [2, 7]: 0.14 | Average degree of polymerization [2, 8]: 166.7 | Radical efficiency f [2, 8]: 1.21 | Rp × 10^5 [2, 8]: 0.92 mole/liter sec | φrel [2, 8]: 0.14 | Average degree of polymerization [2, 9]: 155.5 | Radical efficiency f [2, 9]: 1.00 | Rp × 10^5 [2, 9]: 1.29 mole/liter sec | φrel [2, 9]: 0.14 | Average degree of polymerization [2, 10]: 102.8 | Radical efficiency f [2, 10]: 0.79 | Rp × 10^5 [2, 10]: 1.47 mole/liter sec | φrel [2, 10]: 0.14 | Average degree of polymerization [2, 11]: 85.7 | Radical efficiency f [2, 11]: 0.56 | Rp × 10^5 [2, 11]: 1.72 mole/liter sec | φrel [2, 11]: 0.14 | Average degree of polymerization [2, 12]: 77.2 | Radical efficiency f [2, 12]: 0.41 | Rp × 10^5 [2, 12]: 1.83 mole/liter sec | φrel [2, 12]: 0.14 | Average degree of polymerization [2, 13]: 48.0 | Radical efficiency f [2, 13]: 0.16 | Rp × 10^5 [2, 13]: 0.95 mole/liter sec | φrel [2, 13]: 0.25 | Average degree of polymerization [2, 14]: 137.2 | Radical efficiency f [2, 14]: 0.15 | Rp × 10^5 [2, 14]: 1.50 mole/liter sec | φrel [2, 14]: 0.14 | Average degree of polymerization [2, 15]: 219.2 | Radical efficiency f [2, 15]: 0.16 | Rp × 10^5 [2, 15]: 2.08 mole/liter sec | φrel [2, 15]: 0.12 | φrel ([2]; chloroform, [I] 0.14 × 10^-3 M, [M] not given): 1.32 | Average degree of polymerization [2, 16]: 186.0 | Radical efficiency f [2, 16]: 0.89 | Rp × 10^5 [2, 16]: 1.32 mole/liter sec | φrel [2, 16]: 0.14 | Average degree of polymerization [2, 17]: 130.0 | Radical efficiency f [2, 17]: 0.86 | Rp × 10^5 [2, 17]: 1.83 mole/liter sec | Average degree of polymerization [2, 18]: 102.9 | Radical efficiency f [2, 18]: 0.37 | Rp × 10^5 [2, 18]: 2.01 mole/liter sec | Average degree of polymerization [2, 19]: 80.5 | Radical efficiency f [2, 19]: 0.40 | Rp × 10^5 [2, 19]: 2.29 mole/liter sec | rate of polymerization of styrene, in words ([2]; same concentration of initiators and monomer): almost double | quenching constant kq τ [3]: 7.5 | photodecomposition behaviour, in words ([4]; 366 nm radiation, room temperature): decomposes smoothly at room temperature | apparent first-order photodecomposition rate constant kd × 10^4 ([4]; C6 H6, 25° C., 366 nm, I = 6.56 × 10^17 quanta/min, 5.03-6.06 × 10^-2 M, given as kd × 10^4): 1.84 s^-1 | quantum yield of decomposition (φ of dec) ([4]; C6 H6, 366 nm, perester 5.03-6.06 × 10^-2 M): 0.94 | quantum yield of decomposition (φ of dec) ([4]; CCl4, 3.56 × 10^-2 M, TBP 3.76 × 10^-2 M): 0.74 | quantum yield of decomposition (φ of dec) ([4]; CCl4, 3.56 × 10^-2 M, no TBP): 0.90 | quantum yield of decomposition (φ of dec) ([4]; CCl4, 4.78 × 10^-2 M, TBP 5.01 × 10^-2 M): 0.79 | quantum yield of decomposition (φ of dec) ([4]; CCl4, 7.16 × 10^-2 M, no TBP): 1.05 | quantum yield of decomposition (φ of dec) ([4]; methanol, TBP 5.08 × 10^-2 M, Ia 5.38, Ib 6.15 × 10^-2 M): 0.64 | quantum yield of decomposition (φ of dec) ([4]; methanol, no TBP, Ia 5.38, Ib 6.15, Ic 5.10 × 10^-2 M): 2.77 | thermal 1st order dec rate × 10^5 [5]: 2.88 M × 10^5 s^-1 | thermal half-life t1/2 [5]: 6.7 h | relative quantum yield φrel of decomposition ([6]; methyl methacrylate 2.34 M): 0.88 | relative quantum yield φrel of decomposition ([6]; methyl methacrylate 4.68 M): 0.80

From patent US4416826A, “Peresters and use thereof” (priority 1980, dated 1983)
